Where a name gives a salt, the structure may show the parent alone.
Legend:
[1] = tested on: mice tail suspension test; experiment: Mice tail suspension test; type: in vivo, ICR mice; details: final 4 min of 6 min, 5 mg/kg intragastric once per day 10 d
Method: (§1) Male ICR mice having a body weight of 18-22 g. The animals were active on a schedule of normal illumination for 12 h and in the dark for 12 h. Environmental temperature and relative humidity were relatively kept for 22±1° C. and 55±5%.
(§2) There were 7 groups of laboratory mice, 10 pieces each group, set as a control group (normal saline), a positive control group (fluoxetine hydrochloride capsule, 5 mg/kg), 5 MAGLZ-II series of administration treatment groups: MAGLZ-II-06, MAGLZ-II-07, MAGLZ-II-11, MAGLZ-II-17 and MAGLZ-II-18, respectively, with an administration concentration of 5 mg/kg.
(§3) All medicaments were used once per day via intragastric administration with a dose of 20 mL/kg (body weight), lasting for 10 d. 1 h later after the final administration, the detection of animal behaviors was started.
The tail suspension test (TST) was performed by the method established by Porsolt, et al. (Porsolt R D, Le Pichon M, Jalfre M. Depression: a new animal model sensitive to antidepressant treatments[J]. Nature, 1977, 266(5604):730-732). Mice were respectively suspended on the tail portions with tail suspension clamps at a distance of 10 mm away from the tail portion of the box (250 mm×250 mm×300 mm) and a distance of 5 cm where the head of each mouse was away from the bottom portion. Noise was tested in a dark room having minimum background, and each mouse was suspended for 6 min, and an immobility time was recorded at intervals in the final 4 min. Judgment standard: the mice stopped struggling and kept still completely.
(§4) All data are shown by x̅±SD, and the comparison among groups is analyzed by one-way variance.

[2] = tested on: mice forced swimming test; experiment: Mice forced swimming test; type: in vivo, ICR mice; details: for Accumulated immobility time: forced swimming, 6 min, 5 mg/kg intragastric once per day 10 d, 1 h after final administration
Method: as §1, §2, §3
Mice forced swimming test was performed according to the method established by Porsolt (Porsolt R D. Behavioural despair in mice: A primary screening test for antidepressants[J]. Arch. Int. Pharmacolodyn. 1977, 229). […] Each mouse was judged as still when stopped struggling, kept suspension in water and only made necessary movement to keep the head above the water.
as §4

[3] = Tissue distribution test in mice; type: in vivo; set-up: content in the brain (tissue distribution): unit not given here; details: 16 mg/kg subcutaneous injection
[4] = target: T1, recombinant human protein MAGL (Homo sapiens, UniProt Q99685); experiment: MAGL enzyme analysis (Cayman MAGL inhibitor screening kit); type: biochemical; details: 4-nitrophenylacetic acid substrate, absorbance 410 nm, read-out: MAGLXIC50
T1 construct: purchased Cayman
T1 sequence (Q99685 1-303): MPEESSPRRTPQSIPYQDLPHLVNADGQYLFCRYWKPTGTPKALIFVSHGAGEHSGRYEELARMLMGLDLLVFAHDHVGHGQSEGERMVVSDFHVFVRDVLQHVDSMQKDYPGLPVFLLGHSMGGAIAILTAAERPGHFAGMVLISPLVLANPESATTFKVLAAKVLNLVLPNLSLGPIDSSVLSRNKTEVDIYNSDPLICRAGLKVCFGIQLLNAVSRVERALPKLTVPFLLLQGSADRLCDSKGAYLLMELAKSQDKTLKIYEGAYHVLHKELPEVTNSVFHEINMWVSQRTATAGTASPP
Method: 150 µL 1Xassay buffer, 10 µL recombinant human protein MAGL and 10 µL different concentrations of MAGL inhibitors (six points within 1 nM to 1000 nM) were added to per well of a 96-well plate. JZL195 (a positive control inhibitor) served as a positive control well, after incubation for 5 min at room temperature, per well was added with 10 µL MAGL substrate, and […] were vibrated for 10 s and placed for 10 min at room temperature, then an absorbance was detected at 410 nm. […] Graphad Prism 5.0 was taken to calculate IC50 curves fitting each inhibitor.

[5] = tested on: reserpine-induced mice depression; experiment: Reserpine-induced mice depression; type: in vivo, ICR mouse; set-up: Awakening / Finger contact / Head touch / Fear / Autonomic activity / Eyelid closure / Upright: scale not given here; details: for Eyelid closure: 2 h after reserpine 4 mg/kg
Method: • Species: ICR mouse • Microbiological level: SPF • Quantity and sex of the animals purchased: male: 75; female: 75 • Quantity and sex of the animals used: male: 75; female: 75 • Body weight: 13-18 g when accepted
Group design: there were 50 pieces for each batch of animals and 3 batches in total; each batch of animals were randomly divided into 5 groups; low, middle and high-dose groups of the samples for test, blank control group and model group; a sample for test was tested per batch.
3.1 Animals were administrated via subcutaneous injection per day with doses of 4, 8 and 16 mg/kg for 6 d in total. 2 h later after the final administration, each animal was subcutaneously injected with 4 mg/kg reserpine except the blank control group; afterwards, indicators, such as, awakening, finger contact, fear, head touch, autonomic activity, upright and eyelid closure were determined 2 h later.
Data statistics and analysis were completed via a computer by SPSS 17.0 software and office 2016, and data statistics was inspected by Kruskal-Wallis. If the Kruskal-Wallis inspection result is significant ((P<0.05), multiple comparison inspection is further performed by a Mann-Whitney U nonparametric test method.

content in the brain, ranking of the test substances [3]	content in the brain (tissue distribution) ([3]; 1.0 h)	content in the brain (tissue distribution) ([3]; 2.0 h)	content in the brain (tissue distribution) ([3]; 5.0 h)	IC50 [4] [nM]	Compound	Accumulated immobility time [1] [S]	accumulated immobility time of mice forced swimming test, in words ([2]; 5 mg/kg intragastric 10 d, P<0.05)	Accumulated immobility time [2] [S]	effect on reserpine-induced depression (conclusion) ([5]; 4, 8 and 16 mg/kg sc 6 d)	Eyelid closure ([5]; high dose 16 mg/kg sc 6 d)	Eyelid closure ([5]; low dose 4 mg/kg sc 6 d)	Eyelid closure ([5]; middle dose 8 mg/kg sc 6 d)
–	–	–	–	–	CNCCC(Oc1ccc(C(F)(F)F)cc1)c1ccccc1 (stereo not drawn) [Fluoxetine hydrochloride capsule, Fluoxetine hydrochloride, reference compound]	92.19±23.63	obviously shorten	92.64±29.17	–	–	–	–
–	–	–	–	–	O=C(Nc1cccc(O)c1)C1CCN(C(=O)c2ccc(Cl)cc2)CC1 [MAGLZ-II-06]	90.73±30.51	–	89.23±46.37	–	–	–	–
–	–	–	–	–	COc1cccc(C(=O)N2CCC(C(=O)Nc3ccc(Cl)cc3)CC2)c1 [MAGLZ-II-07]	89.66±31.52	–	91.31±41.85	–	–	–	–
ranking the second	2.9	9.4	4.8	15	O=C(Nc1cccc(Cl)c1)C1CCN(C(=O)c2ccc3ccccc3c2)CC1 [MAGLZ-II-17]	89.87±29.68	–	79.38±41.67	may enhance the effect	0.25±0.66	2.25±0.66	1±1.00
